Test results reported in patent publication EP0486595B1, “Use of a coleus extract for skin pigmentation” (LVMH RECHERCHE, priority 1989, dated 1991).

Key:
mélanocytes murins [1] = assay: Melanin formation (melanogenesis stimulation) in cultured melanocytes, optical density at 475 nm; format: cell-based; conditions: for Mélanine >g pour 10⁶ mélanocytes / A: concentration 10 >g/ml; for A: relative to β-MSH 2.10⁻⁸ M
Text: (§1) Des mélanocytes murins sont cultivés sur un milieu approprié de manière classique.
Au jour J = 0, le produit à tester est introduit dans le milieu de culture. […]
(§2) On procède à la lecture de la densité optique sur un spectrophotomètre à 475 nm, ce qui permet d'évaluer la quantité de mélanine formée par comparaison à la densité optique d'une solution de mélanine de concentration connue.
(§3) On procède également au comptage des cellules, et on calcule le taux de mélanine formée par cellule, par rapport à une culture témoin, sans addition de produit à tester.
(§4) L'extrait Coleus 5B, selon l'exemple 5b est testé en comparaison avec de la forskoline seule, utilisée à concentration équivalente, et avec un témoin positif consistant en 10⁻⁸ mole de β-MSH. Ainsi, on introduit au jour J=0 dans le milieu de culture de la forskoline à la concentration de 0,1 >g/ml.
(§5) Dans une autre culture, on introduit l'extrait de Coleus à une concentration déterminée de façon que le taux en forskoline soit également d'environ 0,1 >g/ml.
(§6) L'activité A de la stimulation de la mélanogénèse par les produits selon l'invention est calculée par la formule suivante : [formula] dans laquelle les grandeurs q représentent les quantités de mélanine formée qp = culture recevant le produit à tester q₊ = culture recevant la βMSH qo = culture témoin ne recevant aucun produit.
(§7) Par ailleurs, on a testé dans des conditions analogues les extraits de Coleus 5A et 5C respectivement obtenus par extraction par un mélange éthanol-eau 80:20 et par le dichlorométhane. On notera toutefois qu'il a été pris comme témoin positif une culture recevant de la β-MSH à la concentration de 2.10⁻⁸M.
(§8) On opère comme à l'exemple 6. La combinaison IBMX plus extrait de Coleus est testée en comparaison avec l'IBMX et l'extrait de Coleus seul, de même qu'avec la β-MSH à la concentration de 2.10⁻⁸ M prise comme témoin positif.

mélanocytes murins [2] = assay: as above; format: cell-based; conditions: for Activité A en % / A: 100 by definition; for Mélanine >g pour 10⁶ mélanocytes / A: β-MSH 2.10⁻⁸ M
Text: as §1
Au jour J = 0, le produit à tester est introduit dans le milieu de culture.
Au jour J = 5, on prélève les cellules que l'on isole par centrifugation et on récupère le culot cellulaire que l'on dissout dans de la soude 0,5 N.
as §2, §3, §4, §5, §6, §7, §8

Question: With `C=C[C@@]1(C)CC(=O)[C@]2(O)[C@@]3(C)[C@@H](O)CCC(C)(C)[C@@H]3[C@H](O)[C@H](OC(C)=O)[C@@]2(C)O1` [Forskoline, forskoline] as the compound, how does the “Mélanine formée en >g pour 10⁶ cellules” value (mélanocytes murins [1]; J = 5, forskoline 0,1 >g/ml, extract dosed to a forskoline level of about 0,1 >g/ml) read?
Answer: 92 ± 3 >g pour 10⁶ cellules

Question: And the “Activité A en %” value (mélanocytes murins [1]; J = 5, forskoline level about 0,1 >g/ml, relative to β-MSH 10⁻⁸ mole = 100)?
Answer: 151%

Question: How did the “Mélanine >g pour 10⁶ mélanocytes” value (mélanocytes murins [1]; J = 4) turn out when `CC(C)Cn1c(=O)n(C)c(=O)c2[nH]cnc21` [IBMX, 3-isobutyl-1-méthylxanthine] was run?
Answer: 64 +/-0 >g pour 10⁶ mélanocytes

Question: And the A (mélanocytes murins [1]; J = 4)?
Answer: + 39

Question: What about the “Mélanine >g pour 10⁶ mélanocytes” value (mélanocytes murins [1]; J = 5) of the same compound?
Answer: 103 +/-2 >g pour 10⁶ mélanocytes

Question: What about the A (mélanocytes murins [1]; J = 5) of the same compound?
Answer: + 35

Question: How did the “Activité A en %” value (mélanocytes murins [2]; 2.10⁻⁸M) turn out when β-MSH was run?
Answer: 100%

Question: And the “Mélanine formée en >g pour 10⁶ cellules” value (mélanocytes murins [2]; 2.10⁻⁸M, Table II positive control)?
Answer: 179 ± 4 >g pour 10⁶ cellules

Question: What about the “Mélanine >g pour 10⁶ mélanocytes” value (mélanocytes murins [2]; J = 4) of the same compound?
Answer: 119 +/-7 >g pour 10⁶ mélanocytes

Question: And the A (mélanocytes murins [2]; J = 4)?
Answer: + 100

Question: And the “Activité A en %” value (mélanocytes murins [2]; J = 5, 10⁻⁸ mole de β-MSH)?
Answer: 100%

Question: What about the “Mélanine formée en >g pour 10⁶ cellules” value (mélanocytes murins [2]; J = 5, positive control 10⁻⁸ mole de β-MSH) of the same compound?
Answer: 70 >g pour 10⁶ cellules

Question: And the “Mélanine >g pour 10⁶ mélanocytes” value (mélanocytes murins [2]; J = 5)?
Answer: 200 +/-2 >g pour 10⁶ mélanocytes

Question: And the A (mélanocytes murins [2]; J = 5)?
Answer: + 100
